These results are taken from US20230348401A1, “Inhibitors of Glucose-6-phosphate Dehydrogenase and Uses Thereof” (The Trustees of Princeton University, priority 2020, published 2023).

The structures appear in SMILES notation.

One assay relates to HCT116 cells. As to the kind of experiment: NADP/NADPH ratio and dUMP levels in HCT116 cells. The settings on record: dose-response. Format: cell-based, human. As for the experimental part: For analysis of intracellular metabolites by LC-MS, adherent cell lines were plated and grown to 80% confluency in 6-well plates. At the start of an experiment, the appropriate media was added to cells, which included isotope tracers and/or chemical inhibitors as described. Cells were incubated at 37° C. at 5% CO2 for 2 hours (unless otherwise noted). For all experiments involving small molecule agents, DMSO concentrations were <0.2%. After 2 hours, media was removed by aspiration and metabolome extraction was performed (without any wash steps) by the addition of 800 µL of ice cold solvent (40:40:20 acetonitrile:methanol:water + 0.5% formic acid). After a 1-minute incubation on ice, the extract was neutralized by the addition of NH4HCO3 (15% w/v). The samples were incubated at -20° C. for approximately 30 minutes, at which point the wells were scraped and the extract transferred to Eppendorf tubes and centrifuged (15 minutes, 16000 rpm, 4° C.). […]
(§1) Metabolites were analyzed using a quadrupole-orbitrap mass spectrometer (Q Exactive Plus, Thermo Fisher Scientific, Waltham, MA), coupled to hydrophilic interaction chromatography (HILIC) with LC separation on a XBridge BEH Amide column (Waters), or a stand-alone orbitrap (Thermo-Fisher Exactive) coupled to reversed-phase ion-pairing chromatography with LC separation on a HSS-T3 column (Waters). […]

In a further assay the test system is T cell lineages. The assay can be described thus: NADPH and NADP+ pools across cell types (LC-MS). Format: cell-based. As for the experimental part: For suspension cells (including T cells and red blood cells), 2×10^6 cells were seeded in 1 mL of media in 12-well plates and incubated with appropriate media, which included isotope tracers and/or chemical inhibitors and/or cytokines, as described. For all experiments involving small molecule agents, DMSO concentrations were <0.2%. After 2 hours, cell suspensions were transferred to 1.5 mL tubes and pelleted (30 seconds, 6000 rpm, room temperature). Media was removed by aspiration and metabolome extraction was performed by the addition of 75 µL of ice cold solvent (40:40:20 ACN:MeOH:H2O + 0.5%FA). After a 5-minute incubation on ice, acid was neutralized by the addition of NH4HCO3. After centrifugation (15 minutes, 16000 rpm, 4° C.), the resulting supernatant was transferred to a clean tube, frozen on dry ice and kept at -80° C. until LC-MS analysis.
as §1

The subject of the next assay is naïve CD8+ T cells. The assay can be described thus: T cell activation, proliferation and viability (flow cytometry). The assay is classed as cell-based, mouse. As for the experimental part: The functional consequences of oxPPP inhibition were next explored using G6PDi-1 in T cells. To test the effect of G6PDi-1 on activation and proliferation, naïve CD8+ T cells were isolated from spleen and activated in vitro with plate-bound αCD3/αCD28 and IL-2. Activation was evaluated by flow cytometry analysis of surface markers CD69 (levels rapidly rise upon activation) and CD25 (usually peaking at 24-48 hours post-activation), and cell size, which increases over the first 24 hours post-activation. To quantify proliferation, naïve cells were stained with […] (CTV) and dye dilution was measured by flow cytometry at day 4 post-activation.
To analyze cell surface markers expression, cells were collected, washed with PBS and stained with the viability dye Live/Dead Aqua. Cells were then washed with staining buffer and stained for surface markers: CD4 (APC-Cy7, clone RM4-5,), CD8a (PerCP-Cy5.5, clone 53-6.7), CD25 (APC, clone PC61), CD44 (PE-Cy7, clone IM7), CD62L (PE, clone MEL-14) CD69 (FITC, clone H1.2F3), for T cells; CD11b (APC, clone M1/70 and F4/80 (FITC, clone BM8) for macrophages.
To analyze proliferation, naïve CD8 T cells were stained with CTV dye and either maintained in a naïve state with IL7 or stimulated with αCD3/αCD28 + recombinant IL-2 in the presence of increasing concentrations of G6PDi-1. Cells were refed at days 2 and 3 post-stimulation, and proliferation was measured at day 4 post-activation. Cells were collected, washed with staining buffer and stained with the viability dye propidium iodide.

Assay [1] deals with CD4+ regulatory T cells (Treg). The assay can be described thus: Treg assays. Format: cell-based. To be noted: CD3/CD28 in the presence of TGF-β. As for the experimental part:
Spleen and peripheral lymph nodes were harvested and processed to single cell suspensions of lymphocytes. Red blood cells were removed with hypotonic lysis. We used magnetic beads (Miltenyi Biotec, San Diego, CA) for isolation of Tconv (CD4^+CD25^-), Treg (CD4^+CD25^+), and antigen presenting cells (CD90.2^-). For cell culture medium, we used RPMI 1640 medium supplemented with 10% fetal bovine serum (FBS), penicillin (100 U/mL), streptomycin (100 µg/mL), and 55 µM β-mercaptoethanol Treg suppression and iTreg polarization were conducted as previously reported. For Treg suppression assays, Tconv were purified and stimulated with irradiated antigen presenting cells plus CD3ε mAb (1 µg/mL, BD Pharmingen). To assess proliferation, Tconv cells were labeled with carboxyfluorescein succinimidyl ester (CFSE), and Treg cells with CellTrace Violet. After 72 h, proliferation of Tconv and Treg cells was determined by flow cytometric analysis of CFSE and CellTrace Violet dilution, respectively. For conversion to Foxp3^+ Tregs, Tconv cells were incubated for 3-5 days with CD3ε/CD28 mAb beads, plus TGF-β (3 ng/mL) and IL-2 (25 U/mL), and analyzed by flow cytometry for Foxp3+ iTreg. Flow cytometry data was captured using Cytoflex (Beckman Coulter, Brea, CA) and analyzed using the FlowJo 10.2 software.

For the next assay, the target named is G6PD (Homo sapiens, UniProt P11413). As to the kind of experiment: 6-pg levels in HepG2 cells (cellular target engagement). Format: cell-based. The arrangement: endogenous in cells. The settings on record: HepG2 cells; read-out: IC50, decrease in 6-pg levels. An excerpt:
Direct Monitoring of 6-pg in cells. The metabolite 6-phosphogluconate (6-pg) is a downstream product of the G6PD reaction, and is believed to be made predominantly by the oxidative pentose phosphate pathway in mammalian cells. Though the direct product of G6PD is the lactone form of 6-pg (6-phosphogluconolactone), this product is believed to readily hydrolyze to 6-pg under cellular conditions, and is therefore difficult to detect. Thus, to directly monitor the G6PD reaction, methods for measuring 6-pg levels in intact cells were developed.
To explore this possibility further, more specific assays for evaluating G6PD cellular target engagement were developed. […] These included the hepatocellular carcinoma line, HepG2, which was selected as the primary cell for direct 6-pg monitoring. Consistent with the oxPPP being the primary source of 6-pg in these cells, G6PD knockout led to nearly complete 6-pg loss (FIGS. 1B and 1C).
For analysis of intracellular metabolites by LC-MS, adherent cell lines were plated and grown to 80% confluency in 6-well plates. At the start of an experiment, the appropriate media was added to cells, which included isotope tracers and/or chemical inhibitors as described. Cells were incubated at 37° C. at 5% CO2 for 2 hours (unless otherwise noted). For all experiments involving small molecule agents, DMSO concentrations were <0.2%. After 2 hours, media was removed by aspiration and metabolome extraction was performed (without any wash steps) by the addition of 800 µL of ice cold solvent (40:40:20 acetonitrile:methanol:water + 0.5% formic acid). After a 1-minute incubation on ice, the extract was neutralized by the addition of NH4HCO3 (15% w/v). The samples were incubated at -20° C. for approximately 30 minutes, at which point the wells were scraped and the extract transferred to Eppendorf tubes and centrifuged (15 minutes, 16000 rpm, 4° C.). The resulting supernatant was frozen on dry ice and kept at -80° C. until LC-MS analysis.
Metabolites were analyzed using a quadrupole-orbitrap mass spectrometer (Q Exactive Plus, Thermo Fisher Scientific, Waltham, MA), coupled to hydrophilic interaction chromatography (HILIC) with LC separation on a XBridge BEH Amide column (Waters), or a stand-alone orbitrap (Thermo-Fisher Exactive) coupled to reversed-phase ion-pairing chromatography with LC separation on a HSS-T3 column (Waters). Both mass spectrometers were operating in negative ion mode and were coupled to their respective liquid chromatography methods via electrospray-ionization. Detailed analytical conditions have been previously described.

G6PD, sequence (P11413 whole entry): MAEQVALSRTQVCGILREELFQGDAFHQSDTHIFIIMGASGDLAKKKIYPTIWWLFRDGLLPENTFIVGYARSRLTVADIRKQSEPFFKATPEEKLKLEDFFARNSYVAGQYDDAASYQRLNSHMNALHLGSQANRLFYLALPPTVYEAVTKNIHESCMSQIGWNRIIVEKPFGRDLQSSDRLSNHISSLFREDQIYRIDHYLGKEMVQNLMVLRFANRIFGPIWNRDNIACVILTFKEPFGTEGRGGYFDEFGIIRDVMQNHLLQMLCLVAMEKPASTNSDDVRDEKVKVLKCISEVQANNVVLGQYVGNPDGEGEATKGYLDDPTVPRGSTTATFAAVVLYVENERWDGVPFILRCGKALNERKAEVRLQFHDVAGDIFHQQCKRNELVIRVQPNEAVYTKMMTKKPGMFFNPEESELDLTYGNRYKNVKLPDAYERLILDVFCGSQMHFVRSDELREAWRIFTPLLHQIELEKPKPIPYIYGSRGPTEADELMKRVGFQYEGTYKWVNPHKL

`N#Cc1cc(Nc2ncc3c(n2)CCCCC3=O)cs1` [Compound 2, 4-([5-oxo-6H,7H,8H,9H-cyclohepta[d]pyrimidin-2-yl]amino)thiophene-2-carbonitrile]: in the assay with HCT116 cells, the NADP/NADPH result is given as “dose-dependent increases” and the dUMP entry was “dose-dependent increases”. For the same molecule, in the assay with T cell lineages, the “decrease in NADPH” value is recorded as over 10 fold and the “increase in NADP+” value is 5-10 fold. In addition, in the assay on naïve CD8+ T cells (CD4+ T cells), the “proliferation of CD4+ T cells” value is reported as “minimal effect”. Moreover, in the assay on naïve CD8+ T cells (CD8+ T cells), the viability result was “minimal effect”. Further, in the assay with naïve CD8+ T cells (CD8+ T cells, day 4 post-activation), the activation-dependent proliferation result is on record as “minimal effect”. For the same molecule, in the assay on naïve CD8+ T cells (CD8+ T cells, αCD3/αCD28 and IL-2), the “upregulation of activation markers and activation-dependent increase in cell size” value was “did not alter”. The “formation and proliferation of Foxp3+ cells” value in assay [1] was “unaffected”. Further, the IC50 at G6PD was about 13 µM.
